Laboratory results reported in paper PMC8247773, “Benzohydrazide and Phenylacetamide Scaffolds: New Putative ParE Inhibitors” (Frontiers in Bioengineering and Biotechnology, 2021).
≈ marks a conversion by molar mass, not a printed value. Where “and” joins values, the source holds several entries; their conditions need not be identical. Identical values can stand only once.

What was measured:
[1] = molecular target: T1, E. coli ParE enzyme (Escherichia coli, UniProt P20083); experiment: E. coli ParE ATPase enzyme inhibition assay (ProFoldin kit, malachite green); type: biochemical; conditions: ATPase activity, mean ± SD (n = 3)
T1 construct: purchased ProFoldin, Hudson, United States
T1 sequence (P20083 whole entry): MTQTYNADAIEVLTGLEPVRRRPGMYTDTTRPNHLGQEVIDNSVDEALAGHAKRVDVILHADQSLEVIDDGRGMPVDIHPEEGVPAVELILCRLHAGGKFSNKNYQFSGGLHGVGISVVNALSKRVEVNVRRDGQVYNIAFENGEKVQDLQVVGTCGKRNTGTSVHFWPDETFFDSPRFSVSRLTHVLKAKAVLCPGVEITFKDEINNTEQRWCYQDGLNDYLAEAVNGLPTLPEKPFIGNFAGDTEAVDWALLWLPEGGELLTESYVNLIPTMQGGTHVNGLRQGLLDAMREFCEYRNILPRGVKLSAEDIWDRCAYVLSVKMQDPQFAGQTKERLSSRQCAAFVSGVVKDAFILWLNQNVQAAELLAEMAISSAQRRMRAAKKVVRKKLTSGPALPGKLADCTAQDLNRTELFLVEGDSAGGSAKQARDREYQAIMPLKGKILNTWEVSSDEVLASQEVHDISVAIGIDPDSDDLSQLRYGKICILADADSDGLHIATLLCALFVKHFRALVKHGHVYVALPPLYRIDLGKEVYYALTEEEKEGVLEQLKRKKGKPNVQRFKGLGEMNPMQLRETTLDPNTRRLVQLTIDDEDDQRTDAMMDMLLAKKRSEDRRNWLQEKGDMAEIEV
T1 sequence (P0AFI2 whole entry, further chain): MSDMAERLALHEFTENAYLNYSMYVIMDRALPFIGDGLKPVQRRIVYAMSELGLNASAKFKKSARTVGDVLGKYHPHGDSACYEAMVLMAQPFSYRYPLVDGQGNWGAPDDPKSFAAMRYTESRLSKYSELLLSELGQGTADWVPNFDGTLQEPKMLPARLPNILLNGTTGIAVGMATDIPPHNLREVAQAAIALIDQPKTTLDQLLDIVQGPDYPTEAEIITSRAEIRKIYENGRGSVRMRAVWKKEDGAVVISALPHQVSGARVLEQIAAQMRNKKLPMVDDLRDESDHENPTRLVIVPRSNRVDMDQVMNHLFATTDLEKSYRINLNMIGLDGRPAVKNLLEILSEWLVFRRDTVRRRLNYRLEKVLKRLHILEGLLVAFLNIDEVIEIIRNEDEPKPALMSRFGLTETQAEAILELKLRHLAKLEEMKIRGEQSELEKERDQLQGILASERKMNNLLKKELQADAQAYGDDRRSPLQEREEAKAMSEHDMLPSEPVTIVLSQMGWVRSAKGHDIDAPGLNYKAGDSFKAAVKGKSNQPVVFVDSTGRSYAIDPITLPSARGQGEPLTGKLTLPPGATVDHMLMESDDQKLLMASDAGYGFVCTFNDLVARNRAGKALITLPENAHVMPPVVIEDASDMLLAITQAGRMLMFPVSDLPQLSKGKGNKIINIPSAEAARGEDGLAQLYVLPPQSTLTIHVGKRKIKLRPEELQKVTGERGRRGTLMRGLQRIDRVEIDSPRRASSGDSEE
Method: The assay was performed as per the standard protocol provided by the ProFoldin. […] ParE hydrolyzes ATP as the source of molecular energy to perform decatenation reactions. Fluoroquinolones and aminocoumarins usually block ATPase activity to hinder the biological activities of topoisomerase II. Thus, the topoisomerase ATPase assay can be used for high-throughput screening of topoisomerase inhibitors. The ATPase activity of the E. coli ParE enzyme was based on the detection of inorganic phosphate produced by the hydrolysis of ATP in the presence of DNA. The phosphate is detected using a microplate reader at an absorbance wavelength of 650 nm. The selected compounds were tested for the inhibition of ATPase activity of ParE enzyme. […] The reaction mixture was incubated for 1 h at 37°C and then quenched with 45 μL of Dye. Incubate for 5 min, and the absorbance was measured at 650 nm. The IC50 values were determined from the absorbance readings using no enzyme and no compound controls. They were calculated using the non-linear regression curve fit method.

[2] = test system: Escherichia coli (NCIM 2065); experiment: Minimum bactericidal concentration (MBC); type: cell-based; conditions: E. Coli (NCIM 2065); for MBC/MIC: ratio ≤2 bactericidal, ≥4 tolerance
Method: (§1) MBC can be defined as the minimum concentration of a compound required to kill the bacteria over a fixed period under precise conditions. […] Colonies were counted, and colony forming unit (CFU) per milliliter was calculated.

[3] = test system: MRSA (ATCC43300); experiment: Minimum bactericidal concentration (MBC); type: cell-based, methicillin-resistant Staphylococcus aureus
Method: as §1

[4] = test system: MRSA (NCIM 5021); experiment: Minimum bactericidal concentration (MBC); type: cell-based, methicillin-resistant Staphylococcus aureus
Method: as §1

[5] = test system: Staphylococcus epidermis (NCIM 2493); parameters: method as in Yele et al., 2020, 2021; conditions: ref Yele et al., 2020, 2021; cited from earlier work
[6] = test system: Escherichia coli (NCIM 2065); experiment: Antibacterial susceptibility test, microbroth dilution MIC; type: cell-based; conditions: E. Coli (NCIM 2065); mean ± SD
[7] = test system: Mycobacterium tuberculosis (NCIM 2984); parameters: method as in Yele et al., 2020, 2021; conditions: ref Yele et al., 2020, 2021; cited from earlier work
[8] = test system: Bacillus subtilis (NCIM 2545); parameters: method as in Yele et al., 2020, 2021; conditions: ref Yele et al., 2020, 2021; cited from earlier work
[9] = test system: Klebsiella pneumonia (NCIM 2706); parameters: method as in Yele et al., 2020, 2021; conditions: ref Yele et al., 2020, 2021; cited from earlier work
[10] = test system: Vero cells; experiment: In vitro cytotoxicity MTT assay; conditions: CC50 Vero cells / IC50
[11] = test system: Escherichia coli (NCIM 2567); parameters: method as in Yele et al., 2020, 2021; conditions: ref Yele et al., 2020, 2021; cited from earlier work
[12] = test system: MRSA (NCIM 5021); experiment: Antibacterial susceptibility test, microbroth dilution MIC; type: cell-based, methicillin-resistant Staphylococcus aureus; conditions: mean ± SD
[13] = test system: Pseudomonas aeruginosa (NCIM 2036); parameters: method as in Yele et al., 2020, 2021; conditions: ref Yele et al., 2020, 2021; cited from earlier work
[14] = test system: MRSA (ATCC43300); experiment: Antibacterial susceptibility test, microbroth dilution MIC; type: cell-based, methicillin-resistant Staphylococcus aureus; conditions: mean ± SD
[15] = test system: Staphylococcus aureus (NCIM 5022); parameters: method as in Yele et al., 2020, 2021; conditions: ref Yele et al., 2020, 2021; cited from earlier work
[16] = test system: Vero cells
[17] = test system: E. coli; experiment: Checkerboard synergy with FDA approved drugs; type: cell-based, Escherichia coli
[18] = test system: E. coli; experiment: Post antibiotic effect (PAE); type: cell-based, Escherichia coli; conditions: for Time for 1 log10: untreated control 2 h

Structure (SMILES)	IC50 against E. coli ParE enzyme [1]	MBC [2]	MBC/MIC [2]	MBC [3]	MBC/MIC [3]	MBC [4]	MBC/MIC [4]	Minimum inhibitory concentration (MIC) S. e [5]	Minimum inhibitory concentration [6]	Minimum inhibitory concentration (MIC) M. t [7]	Minimum inhibitory concentration (MIC) B. s [8]	Minimum inhibitory concentration (MIC) K. p [9]	SI (CC50/IC50) [10]	Minimum inhibitory concentration (MIC) E. c [11]	Minimum inhibitory concentration [12]	Minimum inhibitory concentration (MIC) P. a [13]	Minimum inhibitory concentration [14]	Minimum inhibitory concentration (MIC) S. a [15]	CC50 [16]	also measured
O=C(COc1ccccc1NC(=O)CCl)Nc1ccc([N+](=O)[O-])cc1 [Compound 1]	0.99 ± 0.01 µg/mL (≈ 2.72 µM)	1.42 ± 0.02 µg/mL (≈ 3.9 µM)	2	0.99 ± 0.24 µg/mL (≈ 2.72 µM)	1	0.84 ± 0.13 µg/mL (≈ 2.31 µM)	1	2.98	0.72 µg/mL and 0.72 ± 0.07 µg/mL	3.85	3.62	0.78	216.0608	0.75	0.84 ± 0.13 µg/mL (≈ 2.31 µM)	0.69	0.99 ± 0.24 µg/mL (≈ 2.72 µM)	2.56	213.9002 µg/mL (≈ 588 µM)	
Cc1cccc([N+](=O)[O-])c1NC(=O)COc1ccccc1NC(=O)CCl [Compound 4]	0.95 µg/mL (≈ 2.51 µM)	4.71 ± 0.03 µg/mL (≈ 12.5 µM)	2	8.76 ± 0.21 µg/mL (≈ 23.2 µM)	3	8.00 ± 0.04 µg/mL (≈ 21.2 µM)	3	2.05	2.49 ± 0.31 µg/mL (≈ 6.59 µM)	0.75	5.97	11.90	169.0629	4.45	2.69 ± 0.49 µg/mL (≈ 7.12 µM)	19.90	2.52 ± 0.37 µg/mL (≈ 6.67 µM)	4.12	163.9911 µg/mL (≈ 434 µM)	
O=C(COc1ccccc1NC(=O)CCl)NNC(=O)c1ccc([N+](=O)[O-])cc1 [Compound 14]	0.36 ± 0.03 µg/mL (≈ 0.885 µM)		1	0.94 ± 0.14 µg/mL (≈ 2.31 µM)	1			5.61	4.14 ± 0.07 µg/mL (≈ 10.2 µM)	2.56	5.70	0.98	179.8902	0.80	4.35 ± 0.09 µg/mL (≈ 10.7 µM)	1.98	0.94 ± 0.14 µg/mL (≈ 2.31 µM)	8.56	64.7605 µg/mL (≈ 159 µM)	
O=C(COc1ccccc1NC(=O)CCl)NNc1ccc([N+](=O)[O-])cc1[N+](=O)[O-] [Compound 17]	0.86 ± 0.12 µg/mL (≈ 2.03 µM)	7.2 ± 0.7 µg/mL (≈ 17 µM)	2			7.46 ± 0.05 µg/mL (≈ 17.6 µM)	2	3.56	3.41 ± 0.25 µg/mL (≈ 8.05 µM)	0.98	4.89	1.26	175.3553	1.25	3.71 ± 0.15 µg/mL (≈ 8.75 µM)	0.98	3.23 ± 0.21 µg/mL (≈ 7.62 µM)	2.38	150.8056 µg/mL (≈ 356 µM)	
O=C(CSc1nc2ccccc2s1)Nc1ccc([N+](=O)[O-])cc1 [Compound 24]		0.78 ± 0.08 µg/mL (≈ 2.26 µM)	1	0.73 ± 0.12 µg/mL (≈ 2.11 µM)	1	0.81 ± 0.10 µg/mL (≈ 2.35 µM)	1	1.98	0.78 µg/mL and 0.78 ± 0.08 µg/mL	2.52	1.97	2.24	351.6852	2.17	0.81 ± 0.10 µg/mL (≈ 2.35 µM)	15.0	0.73 ± 0.12 µg/mL (≈ 2.11 µM)	0.78	168.8089 µg/mL (≈ 489 µM)	
O=C(COc1ccc2ccccc2c1)Nc1ccc(Cl)cc1 [Compound 29]	2.77 µg/mL (≈ 8.88 µM)	0.81 ± 0.14 µg/mL (≈ 2.6 µM)	1	0.91 ± 0.11 µg/mL (≈ 2.92 µM)	1	0.75 ± 0.19 µg/mL (≈ 2.41 µM)	1	4.70	0.81 ± 0.14 µg/mL (≈ 2.6 µM)	0.77	4.69	0.88		0.77	0.75 ± 0.19 µg/mL (≈ 2.41 µM)	5.48	0.91 ± 0.11 µg/mL (≈ 2.92 µM)	0.90		
CNC(C)C1CCC(N)C(OC2C(N)CC(N)C(OC3OCC(C)(O)C(NC)C3O)C2O)O1 (stereo not drawn) [Gentamicin]																				FIC A ([17]; FIC of compound 5 in combination): 0.1453; FIC A ([17]; FIC of compound 21 in combination with the row's drug): 0.1907; FIC B ([17]; FIC of the drug in combination with compound 5): 0.1254; FIC B ([17]; FIC of the drug in combination with compound 21): 0.1510; Inference ([17]; drug combined with compound 5): Synergistic (synergistic when the ΣFICs is ≤ 0.5); Inference ([17]; drug combined with compound 21): Synergistic (synergistic when the ΣFICs is ≤ 0.5); ΣFIC A + FIC B ([17]; drug combined with compound 21): 0.3417; PAE = T - C ([18]; 1 × mic): 0 h; Time for 1 log10 ([18]; 1 × mic): 2 h; PAE = T - C ([18]; 10 × mic): 1 h; Time for 1 log10 ([18]; 10 × mic): 3 h
